Test results reported in patent US12084472B2 (Ardelyx, Inc., priority 2015, dated 2024).

molecular target: T1, human TGR5 (Homo sapiens, UniProt Q8TDU6); assay: Cell-based TGR5 assay (cAMP generation, HTRF); settings: HEK293 cells stably transfected with human TGR5; cAMP by HTRF; 30 minutes at 37° C.; read-out: pEC50 Human TGR5 (converted)
T1 construct: expressed in transfected cells; host or cells: HEK293
T1 sequence (Q8TDU6 1-330): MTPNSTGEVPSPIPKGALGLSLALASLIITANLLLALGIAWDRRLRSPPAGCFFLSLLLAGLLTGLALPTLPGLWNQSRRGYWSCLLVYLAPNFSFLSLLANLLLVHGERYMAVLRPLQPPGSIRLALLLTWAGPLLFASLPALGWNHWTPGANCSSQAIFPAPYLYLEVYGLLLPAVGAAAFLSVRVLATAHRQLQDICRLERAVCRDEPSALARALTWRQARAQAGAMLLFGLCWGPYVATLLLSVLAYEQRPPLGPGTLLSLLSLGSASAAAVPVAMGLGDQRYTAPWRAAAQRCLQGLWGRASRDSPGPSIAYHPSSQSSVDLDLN
Summary of the method: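 Read-out was HTRF detection of cAMP, converted to concentration via a standard curve and fitted (3-parameter logistic) for pEC50 and maximal response. Agonist stimulation used HEK293 cells stably transfected with human TGR5, incubated 30 min at 37° C in IBMX-containing buffer at 0.05 nM to 10 μM compound.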

| EC50 | SMILES |
| --- | --- |
| < 0.1 µM | O=C(O)CCCC(=O)N(CCCCc1cc(Cl)c(COC2(c3cnccc3-c3ccccc3OC3CC3)CC2)cc1Cl)C[C@H](O)[C@@H](O)[C@H](O)[C@H](O)CO [Compound I-182, 4-({4-[2,5-dichloro-4-({1-[4-(2-cyclopropoxyphenyl)pyridin-3-yl]cyclopropoxy}methyl)phenyl]butyl}[(2S,3R,4R,5R)-2,3,4,5,6-pentahydroxyhexyl]carbamoyl)butanoic acid] |
| < 0.1 µM | Clc1ccc(Cl)c(COC2(c3cnccc3-c3ccccc3OC3CC3)COC2)c1 [Compound I-59, 4-(2-cyclopropoxyphenyl)-3-[3-[(2,5-dichlorophenyl)methoxy]oxetan-3-yl]pyridine] |
| < 0.1 µM | O=C(CCCCc1cc(Cl)c(COC2(c3cnccc3-c3ccccc3OC3CC3)CC2)cc1Cl)N[C@@H](C(=O)O)[C@@H](O)[C@H](O)[C@H](O)CO [Compound I-153] |
| < 0.1 µM | Cc1ccc([C@@H](C)CCCC(=O)N(C)C[C@H](O)[C@@H](O)[C@H](O)[C@H](O)CO)cc1CNC1(c2cnccc2-c2ccccc2OC2CC2)CC1 (single isomer, unassigned) [Compound I-350] |
| < 0.1 µM | Cc1ccc(Cl)c(COC2(c3cnccc3-c3ccccc3OC3CC3)CC2)c1 [Compound I-54, 3-{1-[(2-chloro-5-methylphenyl)methoxy]cyclopropyl}-4-(2-cyclopropoxyphenyl)pyridine] |
| 0.126 to 1 µM | Clc1ccc(Cl)c(COC2(c3cnccc3-c3ccccc3Cl)CC2)c1 [Compound I-768, 4-(2-chlorophenyl)-3-(1-((2,5-dichlorobenzyl)oxy)cyclopropyl)pyridine] |
| < 0.1 µM | O=C(NCCCCCSc1ccc(Cl)c(COC2(c3cnccc3-c3ccccc3OC3CC3)CC2)c1)N[C@H]1CC[C@@H](NC(=O)NC[C@H](O)[C@@H](O)[C@H](O)[C@H](O)CO)CC1 [Compound I-634, 1-(5-{[4-chloro-3-({1-[4-(2-cyclopropoxyphenyl)pyridin-3-yl]cyclopropoxy}methyl)phenyl]sulfanyl}pentyl)-3-[(1s,4s)-4-({[(2S,3R,4R,5R)-2,3,4,5,6-pentahydroxyhexyl]carbamoyl}amino)cyclohexyl]urea] |
| < 0.1 µM | CC(CCCN(CCCN1CCCC1=O)C(=O)[C@@H](O)[C@@H](O)[C@H](O)[C@@H](O)CO)c1ccc(Cl)c(CNC2(c3cnccc3-c3ccccc3OC3CC3)CC2)c1 (stereo partly drawn) [Compound I-294, (2S,3S,4R,5S)-N-(4-{4-chloro-3-[({1-[4-(2-cyclopropoxyphenyl)pyridin-3-yl]cyclopropyl}amino)methyl]phenyl}pentyl)-2,3,4,5,6-pentahydroxy-N-[3-(2-oxopyrrolidin-1-yl)propyl]hexanamide] |
| < 0.1 µM | CC(=O)NCCCCN(CCCSc1ccc(Cl)c(COC2(c3cnccc3-c3ccccc3OC3CC3)CC2)c1)C(=O)[C@@H](O)[C@@H](O)[C@H](O)[C@@H](O)CO [Compound I-579, (2S,3S,4R,5S)-N-(3-{[4-chloro-3-({1-[4-(2-cyclopropoxyphenyl)pyridin-3-yl]cyclopropoxy}methyl)phenyl]sulfanyl}propyl)-N-(4-acetamidobutyl)-2,3,4,5,6-pentahydroxyhexanamide] |
| 1.26 to 10 µM | O=C(CCN(CCC(=O)NC[C@H](O)[C@@H](O)[C@H](O)[C@H](O)CO)C(=O)CCCCc1cc(Cl)c(CNC2(c3cnccc3-c3ccccc3OC3CC3)CC2)cc1Cl)NC[C@H](O)[C@@H](O)[C@H](O)[C@H](O)CO (stereo in doubt) [Compound I-170, 5-{2,5-dichloro-4-[({1-[4-(2-cyclopropoxyphenyl)pyridin-3-yl]cyclopropyl}amino)methyl]phenyl}-N,N-bis(2-{[(2S,3R,4R,5R)-2,3,4,5,6-pentahydroxyhexyl]carbamoyl}ethyl) pentanamide] |
| < 0.1 µM | CN(CCSc1ccc(Cl)c(CNC2(c3cnccc3-c3ccccc3OC3CC3)CC2)c1)C(=O)[C@@H](O)[C@@H](O)[C@H](O)[C@@H](O)CO [Compound I-542, (2S,3S,4R,5S)-N-[2-({4-chloro-3-[({1-[4-(2-cyclopropoxyphenyl)pyridin-3-yl]cyclopropyl}amino)methyl]phenyl}sulfanyl)ethyl]-2,3,4,5,6-pentahydroxy-N-methylhexanamide] |
